In patent publication US4450269A, “Mono-5-substituted-3-chloro-4H-1,2,6-thiadiazin-4-one antifungal agents” (FMC Corporation, priority 1980, dated 1984):
Where two headings read alike, the source gives them in different places.

Tests used:
Type in all cases: cell-based
[1] = tested on: Phytophthora infestans; conditions: PI, 48 hours
[2] = tested on: Uromyces phaseoli; test: Spore germination test; conditions: UP, 48 hours
Procedure, shortened: (§1)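 Compound was delivered in acetone into water agar at final 40, 10, 2.5 and 1 ppm. Alternaria solani and Botrytis cinerea spores were applied as sterile-water suspensions, while Erysiphe polygoni and Uromyces phaseoli spores were brushed on from infected leaves. After 48 h at 24° C., percentage germination was converted to a rating.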

[3] = tested on: Erysiphe polygoni; test: Spore germination test; conditions: EP, 48 hours
Procedure, shortened: as §1

SMILES	Spore Germination Rating ([1]; 1.0 ppm)	Spore Germination Rating ([1]; 2.5 ppm)	Spore Germination Rating ([1]; 10 ppm)	Spore Germination Rating ([1]; 40 ppm)	Spore Germination Rating ([2]; 1.0 ppm)	Spore Germination Rating ([2]; 2.5 ppm)	Spore Germination Rating ([2]; 10 ppm)	Spore Germination Rating ([2]; 40 ppm)	Spore Germination Rating ([3]; 1.0 ppm)	Spore Germination Rating ([3]; 2.5 ppm)	Spore Germination Rating ([3]; 10 ppm)	Spore Germination Rating ([3]; 40 ppm)
O=C(O)Cc1ccccc1Oc1nsnc(Cl)c1=O [Compound 45, 3-(2-carboxymethylphenoxy)-5-chloro-4H--1,2,6-thiadiazin-4-one]	4 (80-100)	4 (80-100)	0 (0-10)	0 (0-10)	4 (80-100)	4 (80-100)	4 (80-100)	2 (40-60)	4 (80-100)	4 (80-100)	4 (80-100)	2 (40-60)
N#CCc1ccc(Oc2nsnc(Cl)c2=O)cc1 [Compound 46, 3-chloro-5-[(4-cyanomethyl)-phenoxy]4H--1,2,6-thiadiazin-4-one]	4 (80-100)	1 (10-40)	1 (10-40)	0 (0-10)	1 (10-40)	0 (0-10)	0 (0-10)	0 (0-10)	4 (80-100)	4 (80-100)	4 (80-100)	4 (80-100)
CC(=O)c1ccc(Oc2nsnc(Cl)c2=O)cc1 [Compound 47, 3-(4-acetylphenoxy)-5-chloro-4H--1,2,6-thiadiazin-4-one]	0 (0-10)	0 (0-10)	0 (0-10)	0 (0-10)	0 (0-10)	0 (0-10)	0 (0-10)	0 (0-10)	4 (80-100)	4 (80-100)	4 (80-100)	1 (10-40)
CC(=O)c1cccc(Oc2nsnc(Cl)c2=O)c1 [Compound 48, 3-(3-acetylphenoxy)-5-chloro-4H--1,2,6-thiadiazin-4-one]	0 (0-10)	0 (0-10)	0 (0-10)	0 (0-10)	0 (0-10)	0 (0-10)	0 (0-10)	0 (0-10)	4 (80-100)	4 (80-100)	2 (40-60)	2 (40-60)
CC(=O)c1ccccc1Oc1nsnc(Cl)c1=O [Compound 49, 3-(2-acetylphenoxy)-5-chloro-4H--1,2,6-thiadiazin-4-one]	3 (60-80)	1 (10-40)	1 (10-40)	1 (10-40)	4 (80-100)	1 (10-40)	0 (0-10)	0 (0-10)	4 (80-100)	4 (80-100)	2 (40-60)	2 (40-60)
O=C(O)c1ccc(Oc2nsnc(Cl)c2=O)cc1 [Compound 50, 3-(4-carboxyphenoxy)-5-chloro-4H--1,2,6-thiadiazin-4-one]	4 (80-100)	2 (40-60)	0 (0-10)	0 (0-10)	4 (80-100)	4 (80-100)	2 (40-60)	0 (0-10)	4 (80-100)	4 (80-100)	4 (80-100)	2 (40-60)
COc1ccc(Cl)c(Oc2nsnc(Cl)c2=O)c1 [Compound 51, 3-chloro-5-[(2-chloro-5-methoxy)phenoxy]-4H--1,2,6-thiadiazin-4-one]	4 (80-100)	3 (60-80)	1 (10-40)	0 (0-10)	0 (0-10)	0 (0-10)	0 (0-10)	0 (0-10)	4 (80-100)	4 (80-100)	0 (0-10)	0 (0-10)
O=c1c(Cl)nsnc1Oc1ccc([N+](=O)[O-])cc1Cl [Compound 53, 3-chloro-5-(2-chloro-4-nitrophenoxy)-4H--1,2,6-thiadiazin-4-one]	1 (10-40)	0 (0-10)	0 (0-10)	0 (0-10)	1 (10-40)	0 (0-10)	0 (0-10)	0 (0-10)	2 (40-60)	1 (10-40)	0 (0-10)	0 (0-10)
Cc1cc(Oc2nsnc(Cl)c2=O)ccc1Cl [Compound 54, 3-chloro-5-(4-chloro-3-methylphenoxy)-4H--1,2,6-thiadiazin-4-one]	1 (10-40)	0 (0-10)	0 (0-10)	0 (0-10)	0 (0-10)	0 (0-10)	0 (0-10)	0 (0-10)	2 (40-60)	0 (0-10)	0 (0-10)	0 (0-10)
Cc1cc(Cl)ccc1Oc1nsnc(Cl)c1=O [Compound 55, 3-chloro-5-(4-chloro-2-methylphenoxy)-4H--1,2,6-thiadiazin-4-one]	1 (10-40)	0 (0-10)	0 (0-10)	0 (0-10)	0 (0-10)	0 (0-10)	0 (0-10)	0 (0-10)	1 (10-40)	0 (0-10)	0 (0-10)	1 (10-40)
Cc1ccc(Cl)c(Oc2nsnc(Cl)c2=O)c1 [Compound 56, 3-chloro-5-[(2-chloro-5-methyl)phenoxy]-4H--1,2,6-thiadiazin-4-one]	4 (80-100)	0 (0-10)	0 (0-10)	0 (0-10)	1 (10-40)	0 (0-10)	0 (0-10)	0 (0-10)	4 (80-100)	2 (40-60)	0 (0-10)	0 (0-10)
Cc1ccc(Oc2nsnc(Cl)c2=O)c(Br)c1 [Compound 57, 3-[(2-bromo-4-methyl)-phenoxy]-5-chloro-4H--1,2,6-thiadiazin-4-one]	4 (80-100)	1 (10-40)	0 (0-10)	0 (0-10)	0 (0-10)	0 (0-10)	0 (0-10)	0 (0-10)	4 (80-100)	0 (0-10)	0 (0-10)	0 (0-10)
Cc1cc(Cl)c(Oc2nsnc(Cl)c2=O)cc1C [Compound 58, 3-chloro-5-[(2-chloro-4,5-dimethyl)phenoxy]-4H--1,2,6-thiadiazin-4-one]	3 (60-80)	2 (40-60)	0 (0-10)	0 (0-10)	2 (40-60)	0 (0-10)	0 (0-10)	0 (0-10)	4 (80-100)	0 (0-10)	0 (0-10)	0 (0-10)
